Data on 14 compounds can be found in US20230150974A1 (Foghorn Therapeutics Inc., priority 2020, published 2023).

Assay [1] deals with T1, HiBiT-BRM (Homo sapiens, UniProt P51531).
T1 construct: expressed in transfected cells
In words: HiBiT-BRM cell-based degradation assay (Nano-Glo HiBiT Lytic Detection). The method in brief: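 Luminescence from HiBiT–LgBiT complementation in lysates of a stable HiBiT-BRM HeLa line measured after 24 h compound exposure. Degradation expressed as percent relative to DMSO-treated cells and cells given 2 μM of a known BRM/BRG1 degrader.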
(In general: HiBiT is a short tag that completes a luciferase, so light tracks the accessible tagged protein.)

Assay [2] has as its target T2, HiBit-BRG1 (Homo sapiens, UniProt P51532).
T2 construct: expressed in transfected cells
Kind of assay: HiBit-BRG1 cell-based degradation assay (Nano-Glo HiBiT Lytic Detection). The method in brief:
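Stable HeLa line co-expressing HiBit-BRG1 and LgBit, 5000 cells/well, treated 24 h in a tissue culture incubator. Lysed with Nano-Glo HiBiT lytic reagent, luminescence read. % degradation normalized to DMSO (high control) and 2 μM reference BRM/BRG1 degrader (low control).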

Setting [3] is: HeLa cells expressing HiBiT-BRM, 24 h.
Setting [4] is: HeLa cells expressing HiBiT-BRM, 24 h; read-out: BRM HiBit Degradation IC50.
The mark [5] stands for this setting: HeLa cells expressing HiBit-BRG1 and LgBit, 24 h; read-out: BRG1 HiBit Degradation IC50.
Where [6] appears, read: HeLa cells expressing HiBit-BRG1 and LgBit, 24 h; read-out: BRG1 HiBit Degradation Maximum (%).

Where two headings read alike, the source gives them in different places. Bounds are passed on as bounds.

T2 sequence (P51532 whole entry): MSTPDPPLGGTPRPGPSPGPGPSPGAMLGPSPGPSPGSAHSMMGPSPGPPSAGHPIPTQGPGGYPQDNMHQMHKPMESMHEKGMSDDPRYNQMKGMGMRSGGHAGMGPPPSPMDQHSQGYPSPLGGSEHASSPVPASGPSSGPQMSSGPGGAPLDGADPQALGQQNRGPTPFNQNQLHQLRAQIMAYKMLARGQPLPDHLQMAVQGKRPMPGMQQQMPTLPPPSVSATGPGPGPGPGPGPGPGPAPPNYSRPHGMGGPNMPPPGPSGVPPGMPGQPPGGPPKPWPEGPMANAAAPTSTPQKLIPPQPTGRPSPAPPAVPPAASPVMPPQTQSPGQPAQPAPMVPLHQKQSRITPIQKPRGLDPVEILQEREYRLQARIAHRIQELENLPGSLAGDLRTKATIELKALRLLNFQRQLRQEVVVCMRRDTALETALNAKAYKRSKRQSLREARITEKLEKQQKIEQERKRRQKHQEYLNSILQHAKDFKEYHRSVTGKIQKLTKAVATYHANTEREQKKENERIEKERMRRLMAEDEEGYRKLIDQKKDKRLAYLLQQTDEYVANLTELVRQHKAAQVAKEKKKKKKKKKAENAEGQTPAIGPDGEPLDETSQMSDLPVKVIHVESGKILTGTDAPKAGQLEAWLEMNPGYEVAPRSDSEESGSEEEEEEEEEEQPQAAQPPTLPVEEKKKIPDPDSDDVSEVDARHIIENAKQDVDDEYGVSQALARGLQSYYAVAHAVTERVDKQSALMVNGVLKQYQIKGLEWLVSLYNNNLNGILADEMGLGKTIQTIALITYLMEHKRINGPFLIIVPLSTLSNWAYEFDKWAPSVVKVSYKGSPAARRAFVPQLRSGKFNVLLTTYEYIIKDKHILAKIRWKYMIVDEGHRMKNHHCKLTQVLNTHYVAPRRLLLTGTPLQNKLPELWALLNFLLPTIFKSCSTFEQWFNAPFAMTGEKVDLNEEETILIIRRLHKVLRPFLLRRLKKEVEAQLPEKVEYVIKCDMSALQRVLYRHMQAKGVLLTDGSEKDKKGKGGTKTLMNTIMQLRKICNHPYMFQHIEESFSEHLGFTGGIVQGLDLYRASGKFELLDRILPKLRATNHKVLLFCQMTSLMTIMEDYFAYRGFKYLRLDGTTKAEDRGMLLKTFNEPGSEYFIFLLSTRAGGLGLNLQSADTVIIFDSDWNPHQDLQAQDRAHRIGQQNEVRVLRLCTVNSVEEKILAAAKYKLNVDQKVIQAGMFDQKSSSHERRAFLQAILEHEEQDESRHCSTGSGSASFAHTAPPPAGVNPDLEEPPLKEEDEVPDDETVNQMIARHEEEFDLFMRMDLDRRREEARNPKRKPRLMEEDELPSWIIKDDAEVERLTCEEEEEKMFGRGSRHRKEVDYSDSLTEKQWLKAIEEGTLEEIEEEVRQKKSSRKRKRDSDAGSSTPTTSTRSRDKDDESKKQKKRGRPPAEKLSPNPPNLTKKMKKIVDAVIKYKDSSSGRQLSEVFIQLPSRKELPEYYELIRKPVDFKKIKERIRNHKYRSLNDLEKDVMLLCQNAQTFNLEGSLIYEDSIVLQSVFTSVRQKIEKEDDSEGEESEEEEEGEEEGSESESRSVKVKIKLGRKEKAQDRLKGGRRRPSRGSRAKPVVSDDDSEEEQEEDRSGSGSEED
T1 sequence (P51531 whole entry): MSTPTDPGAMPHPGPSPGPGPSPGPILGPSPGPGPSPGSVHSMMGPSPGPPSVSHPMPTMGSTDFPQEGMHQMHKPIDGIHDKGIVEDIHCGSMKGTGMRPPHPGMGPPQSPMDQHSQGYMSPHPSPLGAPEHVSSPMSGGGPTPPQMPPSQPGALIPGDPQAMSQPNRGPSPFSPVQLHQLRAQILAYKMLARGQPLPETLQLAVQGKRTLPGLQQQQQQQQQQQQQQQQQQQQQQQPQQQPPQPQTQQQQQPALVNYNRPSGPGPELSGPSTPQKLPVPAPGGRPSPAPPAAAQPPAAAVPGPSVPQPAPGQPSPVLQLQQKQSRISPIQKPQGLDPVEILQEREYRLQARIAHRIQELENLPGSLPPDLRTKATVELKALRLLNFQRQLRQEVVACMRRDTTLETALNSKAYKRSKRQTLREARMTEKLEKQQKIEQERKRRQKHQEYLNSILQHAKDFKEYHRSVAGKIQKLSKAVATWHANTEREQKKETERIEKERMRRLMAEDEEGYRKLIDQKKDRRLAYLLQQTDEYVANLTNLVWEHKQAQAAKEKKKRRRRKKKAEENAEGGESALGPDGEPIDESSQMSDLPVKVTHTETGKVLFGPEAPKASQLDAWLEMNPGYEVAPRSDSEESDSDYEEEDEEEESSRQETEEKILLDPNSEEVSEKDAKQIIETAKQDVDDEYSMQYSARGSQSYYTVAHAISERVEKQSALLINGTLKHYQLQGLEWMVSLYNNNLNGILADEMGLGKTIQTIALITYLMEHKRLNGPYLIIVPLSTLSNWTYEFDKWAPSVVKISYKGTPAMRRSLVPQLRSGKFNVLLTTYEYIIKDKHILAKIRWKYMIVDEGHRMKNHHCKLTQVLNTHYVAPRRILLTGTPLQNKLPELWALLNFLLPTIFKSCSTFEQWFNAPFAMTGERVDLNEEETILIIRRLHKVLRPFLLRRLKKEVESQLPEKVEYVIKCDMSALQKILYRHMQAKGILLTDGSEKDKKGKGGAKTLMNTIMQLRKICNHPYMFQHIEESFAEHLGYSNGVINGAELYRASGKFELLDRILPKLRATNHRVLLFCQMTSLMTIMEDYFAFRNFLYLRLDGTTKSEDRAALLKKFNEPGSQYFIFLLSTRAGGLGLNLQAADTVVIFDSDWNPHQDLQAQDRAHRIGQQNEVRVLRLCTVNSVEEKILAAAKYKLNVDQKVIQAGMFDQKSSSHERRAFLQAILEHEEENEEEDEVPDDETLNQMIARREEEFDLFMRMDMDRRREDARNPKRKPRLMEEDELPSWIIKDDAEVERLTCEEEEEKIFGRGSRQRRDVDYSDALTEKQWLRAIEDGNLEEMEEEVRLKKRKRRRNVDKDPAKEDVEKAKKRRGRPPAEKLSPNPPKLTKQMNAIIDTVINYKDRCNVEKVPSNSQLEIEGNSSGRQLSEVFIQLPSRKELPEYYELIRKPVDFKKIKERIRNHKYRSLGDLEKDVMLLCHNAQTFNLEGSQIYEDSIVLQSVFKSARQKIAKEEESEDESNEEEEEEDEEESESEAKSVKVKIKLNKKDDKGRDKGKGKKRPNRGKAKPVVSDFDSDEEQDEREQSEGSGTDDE

For the compound `Cc1ncsc1-c1ccc(CNC(=O)[C@@H]2C[C@@H](O)CN2C(=O)[C@@H](NC(=O)CCCCCCCNC(=O)c2ccc(CCOc3cc(-c4ccccc4O)nnc3N)cc2)C(C)(C)C)cc1` [Compound 57, (2S,4R)-1-[(2S)-2-(8-[[4-(2-[[3-amino-6-(2-hydroxyphenyl)pyridazin-4-yl]oxy]ethyl)phenyl]formamido]octanamido)-3,3-dimethylbutanoyl]-4-hydroxy-N-[[4-(4-methyl-1,3-thiazol-5-yl)phenyl]methyl]pyrrolidine-2-carboxamide], in assay [1] (setting [3]), the “BRM HiBit Degradation Maximum (%)” value is listed as “B (“B” indicates maximum degradation ≥50%)”. Also, the results for the DC50 in assay [1] (setting [4]) and in assay [2] (setting [5]) were over 100 nM and over 1000 nM, respectively. Also, the Dmax in assay [2] (setting [6]) was under 50%.

With `Nc1nnc(-c2ccccc2O)cc1OCCc1ccc(C(=O)NCCCCCCCCCCC(=O)NCc2ccc(S(=O)(=O)Nc3cccc4c(Cl)c[nH]c34)cc2)cc1` [Compound 11, 11-[[4-(2-[[3-amino-6-(2-hydroxyphenyl)pyridazin-4-yl]oxy]ethyl)phenyl]formamido]-N-([4-[(3-chloro-1H-indol-7-yl)sulfamoyl]phenyl]methyl)undecanamide], the “BRM HiBit Degradation Maximum (%)” value in assay [1] (setting [3]) is given as “C (“C” indicates maximum degradation <50%)”. In addition, the DC50 in assay [1] (setting [4]) and in assay [2] (setting [5]) was over 1000 nM throughout. For the same compound, the Dmax in assay [2] (setting [6]) was under 50%.

For the compound `Cc1ncsc1-c1ccc(CNC(=O)[C@H]2C[C@H](O)CN2C(=O)[C@H](NC(=O)COCCOCCOCCNC(=O)c2ccc(CCOc3cc(-c4ccccc4O)nnc3N)cc2)C(C)(C)C)cc1` (stereo in doubt) [Compound 60, (2R,4S)-1-[(2R)-2-(2-[2-[2-(2-[[4-(2-[[3-amino-6-(2-hydroxyphenyl)pyridazin-4-yl]oxy]ethyl)phenyl]formamido]ethoxy)ethoxy]ethoxy]acetamido)-3,3-dimethylbutanoyl]-4-hydroxy-N-[[4-(4-methyl-1,3-thiazol-5-yl)phenyl]methyl]pyrrolidine-2-carboxamide], in assay [1] (setting [3]), the “BRM HiBit Degradation Maximum (%)” value was “B (“B” indicates maximum degradation ≥50%)”. Moreover, the DC50 in assay [1] (setting [4]) and in assay [2] (setting [5]) was over 1000 nM each time. In assay [2] (setting [6]), the Dmax is under 50%.

Take `Nc1nnc(-c2ccccc2O)cc1OCCc1ccc(CNC(=O)CCCCNc2cccc3c2CN(C2CCC(=O)NC2=O)C3=O)cc1` (stereo not drawn) [Compound 2, N-(4-(2-((3-amino-6-(2-hydroxyphenyl)pyridazin-4-yl)oxy)ethyl)benzyl)-5-((2-(2,6-dioxopiperidin-3-yl)-1-oxoisoindolin-4-yl)amino)pentanamide]: the “BRM HiBit Degradation Maximum (%)” value in assay [1] (setting [3]) was “C (“C” indicates maximum degradation <50%)”. In addition, the DC50 in assay [1] (setting [4]) and in assay [2] (setting [5]) was over 1000 nM throughout.

In the case of `Nc1nnc(-c2ccccc2O)cc1OCCc1ccc(C(=O)NCCCCCCCCCCCC(=O)NCc2ccc(S(=O)(=O)Nc3cccc4c(Cl)c[nH]c34)cc2)cc1` [Compound 22, 12-[[4-(2-[[3-amino-6-(2-hydroxyphenyl)pyridazin-4-yl]oxy]ethyl)phenyl]formamido]-N-([4-[(3-chloro-1H-indol-7-yl)sulfamoyl]phenyl]methyl)dodecanamide], the “BRM HiBit Degradation Maximum (%)” value in assay [1] (setting [3]) is reported as “C (“C” indicates maximum degradation <50%)”. Also, the DC50 in assay [1] (setting [4]) and in assay [2] (setting [5]) was over 1000 nM in each case. In addition, the Dmax in assay [2] (setting [6]) was under 50%.

In the case of `Cc1ncsc1-c1ccc(CNC(=O)[C@@H]2C[C@@H](O)CN2C(=O)[C@@H](NC(=O)CCN2C[C@H]3CN(CCC(=O)NCc4ccc(CCOc5cc(-c6ccccc6O)nnc5N)cc4)C[C@H]3C2)C(C)(C)C)cc1` [Compound 235, (2S,4R)-1-((2S)-2-(3-(5-(3-((4-(2-((3-amino-6-(2-hydroxyphenyl)pyridazin-4-yl)oxy)ethyl)benzyl)amino)-3-oxopropyl)hexahydropyrrolo[3,4-c]pyrrol-2(1H)-yl)propanamido)-3,3-dimethylbutanoyl)-4-hydroxy-N-(4-(4-methylthiazol-5-yl)benzyl)pyrrolidine-2-carboxamide], in assay [1] (setting [3]), the “BRM HiBit Degradation Maximum (%)” value is on record as “C (“C” indicates maximum degradation <50%)”. Besides, the DC50 in assay [1] (setting [4]) and in assay [2] (setting [5]) was over 1000 nM throughout. The Dmax in assay [2] (setting [6]) is under 50%.

For `Cc1ncsc1-c1ccc(CNC(=O)[C@@H]2C[C@@H](O)CN2C(=O)[C@@H](NC(=O)CCCCCCCCCCCCCC(=O)N(C)Cc2ccc(CCOc3cc(-c4ccccc4O)nnc3N)cc2)C(C)(C)C)cc1` [Compound 159, N1-(4-(2-((3-amino-6-(2-hydroxyphenyl)pyridazin-4-yl)oxy)ethyl)benzyl)-N15-((S)-1-((2S,4R)-4-hydroxy-2-((4-(4-methylthiazol-5-yl)benzyl)carbamoyl)pyrrolidin-1-yl)-3,3-dimethyl-1-oxobutan-2-yl)-N1-methylpentadecanediamide], the “BRM HiBit Degradation Maximum (%)” value in assay [1] (setting [3]) was “A (“A” indicates maximum degradation ≥75%)”. The figures for the DC50 in assay [1] (setting [4]) and in assay [2] (setting [5]) were over 10 nM and over 1000 nM, respectively. In assay [2] (setting [6]), the Dmax is under 50%.

As to `Nc1nnc(-c2ccccc2O)cc1OCCc1ccc(CNCCCCCOc2ccc3c(c2)C(=O)N(C2CCC(=O)NC2=O)C3=O)cc1` (stereo not drawn) [Compound 116, 5-((5-((4-(2-((3-amino-6-(2-hydroxyphenyl)pyridazin-4-yl)oxy)ethyl)benzyl)amino)pentyl)oxy)-2-(2,6-dioxopiperidin-3-yl)isoindoline-1,3-dione; diformic acid], the “BRM HiBit Degradation Maximum (%)” value in assay [1] (setting [3]) was “C (“C” indicates maximum degradation <50%)”. Besides, the DC50 in assay [1] (setting [4]) and in assay [2] (setting [5]) was over 1000 nM throughout. The Dmax in assay [2] (setting [6]) is under 50%.

As to `Cc1ncsc1-c1ccc([C@H](C)NC(=O)[C@@H]2C[C@@H](O)CN2C(=O)[C@@H](c2cc(OCCN3CCN(CC(=O)NCc4ccc(CCOc5cc(-c6ccccc6O)nnc5N)cc4)CC3)no2)C(C)C)cc1` [Compound 174, (2S,4R)-1-((R)-2-(3-(2-(4-(2-((4-(2-((3-amino-6-(2-hydroxyphenyl)pyridazin-4-yl)oxy)ethyl)benzyl)amino)-2-oxoethyl)piperazin-1-yl)ethoxy)isoxazol-5-yl)-3-methylbutanoyl)-4-hydroxy-N-((S)-1-(4-(4-methylthiazol-5-yl)phenyl)ethyl)pyrrolidine-2-carboxamide], the “BRM HiBit Degradation Maximum (%)” value in assay [1] (setting [3]) is given as “A (“A” indicates maximum degradation ≥75%)”. Besides, the values for the DC50 in assay [1] (setting [4]) and in assay [2] (setting [5]) were over 10 nM and over 100 nM, respectively. Besides, the Dmax in assay [2] (setting [6]) is over 75%.

In the case of `Nc1nnc(-c2ccccc2O)cc1OCCc1ccc(CNCCCCOc2cccc3c2C(=O)N(C2CCC(=O)NC2=O)C3=O)cc1` (stereo not drawn) [Compound 121, 4-(4-((4-(2-((3-amino-6-(2-hydroxyphenyl)pyridazin-4-yl)oxy)ethyl)benzyl)amino)butoxy)-2-(2,6-dioxopiperidin-3-yl)isoindoline-1,3-dione], the “BRM HiBit Degradation Maximum (%)” value in assay [1] (setting [3]) was “C (“C” indicates maximum degradation <50%)”. The DC50 in assay [1] (setting [4]) and in assay [2] (setting [5]) was over 1000 nM each time. In assay [2] (setting [6]), the Dmax is under 50%.

On to `Cc1ncsc1-c1ccc([C@H](C)NC(=O)[C@@H]2C[C@@H](O)CN2C(=O)[C@@H](NC(=O)CCCCCCCCCC(=O)NCc2ccc(CCOc3cc(-c4ccccc4O)nnc3N)cc2)C(C)(C)C)cc1` [Compound 198, N1-(4-(2-((3-amino-6-(2-hydroxyphenyl)pyridazin-4-yl)oxy)ethyl)benzyl)-N11-((S)-1-((2S,4R)-4-hydroxy-2-(((S)-1-(4-(4-methylthiazol-5-yl)phenyl)ethyl)carbamoyl)pyrrolidin-1-yl)-3,3-dimethyl-1-oxobutan-2-yl)undecanediamide], for which the “BRM HiBit Degradation Maximum (%)” value in assay [1] (setting [3]) is “A (“A” indicates maximum degradation ≥75%)”. Besides, the values for the DC50 in assay [1] (setting [4]) and in assay [2] (setting [5]) were over 10 nM and over 1000 nM, respectively. Further, in assay [2] (setting [6]), the Dmax was under 50%.

Turning to `Nc1nnc(-c2ccccc2O)cc1OCCc1ccc(CNC(=O)NCCCOc2cccc3c2C(=O)N(C2CCC(=O)NC2=O)C3=O)cc1` (stereo not drawn) [Compound 8, 1-(4-(2-((3-amino-6-(2-hydroxyphenyl)pyridazin-4-yl)oxy)ethyl)benzyl)-3-(3-((2-(2,6-dioxopiperidin-3-yl)-1,3-dioxoisoindolin-4-yl)oxy)propyl)urea], in assay [1] (setting [3]), the “BRM HiBit Degradation Maximum (%)” value is reported as “B (“B” indicates maximum degradation ≥50%)”. Moreover, the DC50 in assay [1] (read-out: BRM HiBit Degradation IC50; HeLa cells expressing HiBiT-BRM, 24 h) is over 1000 nM; in assay [2] (read-out: BRG1 HiBit Degradation IC50; HeLa cells expressing HiBit-BRG1 and LgBit, 24 h) it was over 1000 nM.

In the case of `Cc1ncsc1-c1ccc([C@H](C)NC(=O)[C@@H]2C[C@@H](O)CN2C(=O)[C@@H](c2cc(OCCN3CC4=C(C3)CN(C(=O)c3ccc(CCOc5cc(-c6ccccc6O)nnc5N)cc3)C4)no2)C(C)C)cc1` [Compound 213, (2S,4R)-1-((R)-2-(3-(2-(5-(4-(2-((3-amino-6-(2-hydroxyphenyl)pyridazin-4-yl)oxy)ethyl)benzoyl)-3,4,5,6-tetrahydropyrrolo[3,4-c]pyrrol-2(1H)-yl)ethoxy)isoxazol-5-yl)-3-methylbutanoyl)-4-hydroxy-N-((S)-1-(4-(4-methylthiazol-5-yl)phenyl)ethyl)pyrrolidine-2-carboxamide], the “BRM HiBit Degradation Maximum (%)” value in assay [1] (setting [3]) is listed as “A (“A” indicates maximum degradation ≥75%)”. The DC50 in assay [1] (setting [4]) is over 10 nM; in assay [2] (setting [5]), over 100 nM. The Dmax in assay [2] (setting [6]) was over 75%.

Consider `Nc1nnc(-c2ccccc2O)cc1N1CCN(CCNC(=O)CCCCCCCCCCNc2cccc3c2C(=O)N(C2CCC(=O)NC2=O)C3=O)CC1` (stereo not drawn) [Compound 88, N-(2-[4-[3-amino-6-(2-hydroxyphenyl)pyridazin-4-yl]piperazin-1-yl]ethyl)-11-[[2-(2,6-dioxopiperidin-3-yl)-1,3-dioxoisoindol-4-yl]amino]undecanamide], for which, in assay [1] (setting [3]), the “BRM HiBit Degradation Maximum (%)” value was “C (“C” indicates maximum degradation <50%)”. The DC50 in assay [1] (setting [4]) and in assay [2] (setting [5]) was over 1000 nM in each case. The Dmax in assay [2] (setting [6]) was under 50%.
